Among the test systems are SW-620 colon; SF-539 CNS; NCI-H522 lung; HOP-62 NSCLC; MCF7 breast; HCC-2998 colon; MOLT-4 leukemia; NCI/ADR-RES ovarian; NCI-H226 lung; KM12 colon.
Assay in all cases: NCI tumour cell line growth inhibition, 48 h

From PubChem BioAssay (NCI) come the findings set out here.

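Test compounds were applied to cells in 96-well plates for 48 hours at 5 doses. Here, GI50 denotes the concentration required for 50% inhibition of growth. TGI denotes the concentration required for complete inhibition of growth.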

For the molecule `CC(=O)N1C/C(=C/c2ccc(Cl)cc2)C(=O)/C(=C/c2ccc(Cl)cc2)C1`, the GI50 in the experiment on SW-620 colon was 0.297 µM; in the experiment on SF-539 CNS, 0.785 µM; in the experiment with NCI-H522 lung, 1.35 µM; in the experiment with HOP-62 NSCLC, 0.516 µM; in the experiment with MCF7 breast, 0.292 µM; in the experiment with HCC-2998 colon, 0.632 µM. In addition, the GI50 in the experiment on MOLT-4 leukemia was 0.249 µM; in the experiment on NCI/ADR-RES ovarian, 2.56 µM; in the experiment on NCI-H226 lung, 1.17 µM; in the experiment on KM12 colon it was 0.255 µM. Moreover, the TGI in the experiment on SW-620 colon was found to be 0.981 µM; in the experiment with SF-539 CNS, 2.03 µM; in the experiment with NCI-H522 lung it was 2.83 µM; in the experiment with HOP-62 NSCLC, 1.25 µM; in the experiment on MCF7 breast, 1.13 µM; in the experiment on HCC-2998 colon it was 1.45 µM. For the same molecule, the TGI with MOLT-4 leukemia was 7.58 µM; in the experiment with NCI/ADR-RES ovarian it was 12.6 µM; in the experiment on NCI-H226 lung, 3.49 µM; in the experiment with KM12 colon, 0.676 µM.
With `N#CC1=C(N)Oc2c(ccc3ccccc23)C1c1ccccc1` (stereo not drawn), the GI50 was 0.0388 µM with SW-620 colon; 0.0311 µM in the experiment with SF-539 CNS; 0.0226 µM with NCI-H522 lung; 0.0555 µM with HOP-62 NSCLC; 0.0393 µM in the experiment on MCF7 breast; 0.141 µM in the experiment on HCC-2998 colon. The GI50 is 0.0574 µM with MOLT-4 leukemia, 0.0274 µM in the experiment with NCI/ADR-RES ovarian, 0.463 µM in the experiment on NCI-H226 lung and 0.0419 µM in the experiment on KM12 colon. Also, the TGI with SW-620 colon was determined as 18.6 µM; in the experiment on SF-539 CNS, 0.158 µM; in the experiment on NCI-H522 lung, 1.7 µM; with HOP-62 NSCLC it was 18.6 µM; with MCF7 breast it was 15.6 µM; in the experiment with HCC-2998 colon, 6.67 µM. The TGI was found to be 16.8 µM in the experiment on MOLT-4 leukemia, 1.68 µM with NCI/ADR-RES ovarian, 19.4 µM with NCI-H226 lung and 13.5 µM in the experiment with KM12 colon.
For the molecule `CC(C)C[C@H](NC(=O)Cn1ccc(NCc2ccccc2)cc1=O)B(O)O`, the GI50 in the experiment on SW-620 colon is 0.557 µM; in the experiment with SF-539 CNS, 0.296 µM; in the experiment with NCI-H522 lung, 0.691 µM; in the experiment on HOP-62 NSCLC, 4.86 µM; in the experiment on MCF7 breast, 0.413 µM; with HCC-2998 colon, 2.21 µM. The GI50 in the experiment on MOLT-4 leukemia was 0.319 µM; in the experiment on NCI/ADR-RES ovarian it was 17.8 µM; with NCI-H226 lung it was 1.19 µM; with KM12 colon, 3.62 µM. Moreover, the TGI is above 28.6 µM with SW-620 colon; 1.13 µM in the experiment on SF-539 CNS; 3.08 µM with NCI-H522 lung; 29.5 µM with HOP-62 NSCLC; above 100 µM with MCF7 breast; 5.73 µM in the experiment with HCC-2998 colon. The TGI was above 100 µM in the experiment with NCI/ADR-RES ovarian, 5.84 µM with NCI-H226 lung and 17.1 µM in the experiment on KM12 colon.
For the molecule `C=C1C(=O)O[C@H]2[C@H]1CC/C(COC(=O)C(=O)c1cn(C)c3ccc(Cl)cc13)=C\CC[C@@]1(C)O[C@@H]21`, the GI50 was 0.857 µM in the experiment on SW-620 colon; 1.66 µM in the experiment on SF-539 CNS; 1.24 µM in the experiment on NCI-H522 lung; 1.33 µM in the experiment on HOP-62 NSCLC; 0.391 µM with MCF7 breast; 1.86 µM in the experiment on HCC-2998 colon. Moreover, the GI50 in the experiment on MOLT-4 leukemia is 0.494 µM; with NCI/ADR-RES ovarian, 1.45 µM; in the experiment with NCI-H226 lung it was 1.46 µM; in the experiment with KM12 colon, 2.48 µM. In addition, the TGI is 10.9 µM in the experiment on SW-620 colon; 3.36 µM in the experiment with SF-539 CNS; 2.68 µM with NCI-H522 lung; 3.02 µM in the experiment on HOP-62 NSCLC; 3.19 µM with MCF7 breast; 3.52 µM in the experiment with HCC-2998 colon. The TGI with MOLT-4 leukemia stood at 4.17 µM; in the experiment with NCI/ADR-RES ovarian it was 4.7 µM; in the experiment on NCI-H226 lung, 3.08 µM; in the experiment on KM12 colon, 7.46 µM.
Consider `COc1ccc(-c2cc(-c3ccc(Cl)cc3)nc(SCCCC(=O)NO)n2)cc1`, for which the GI50 with SW-620 colon was 0.553 µM; with SF-539 CNS, 1.36 µM; with NCI-H522 lung, 0.704 µM; in the experiment on HOP-62 NSCLC, 0.902 µM; in the experiment on MCF7 breast, 1.81 µM; with HCC-2998 colon, 1.68 µM. Moreover, the GI50 in the experiment with MOLT-4 leukemia is 0.796 µM; in the experiment on NCI/ADR-RES ovarian, 0.314 µM; in the experiment with NCI-H226 lung, 1.49 µM; in the experiment on KM12 colon, 1.44 µM. Besides, the TGI in the experiment on SW-620 colon turned out to be 3.29 µM; with SF-539 CNS, 3.78 µM; in the experiment on NCI-H522 lung it was 3.26 µM; with HOP-62 NSCLC, 6.66 µM; in the experiment on MCF7 breast it was 7.43 µM; in the experiment with HCC-2998 colon, 3.45 µM. Also, the TGI is above 22 µM in the experiment with MOLT-4 leukemia, 1.28 µM with NCI/ADR-RES ovarian, 6.89 µM in the experiment on NCI-H226 lung and 4.12 µM with KM12 colon.
As to `Cc1cc(O)cc2c1[C@]1(C)CCC3C(C)(C)CCC[C@]3(C)[C@H]1C2` (stereo partly drawn), the GI50 was 18.5 µM with SW-620 colon; 20.6 µM in the experiment on SF-539 CNS; 20.8 µM in the experiment on NCI-H522 lung; 20.6 µM in the experiment on HOP-62 NSCLC; 18.6 µM in the experiment on MCF7 breast; 22.1 µM in the experiment on HCC-2998 colon. Further, the GI50 with MOLT-4 leukemia was 28.1 µM; in the experiment on NCI/ADR-RES ovarian, 21.4 µM; with NCI-H226 lung, 22.4 µM; in the experiment on KM12 colon it was 20 µM. Also, the TGI was determined as 33.6 µM with SW-620 colon; 37.9 µM in the experiment with SF-539 CNS; 38.9 µM in the experiment on NCI-H522 lung; 35.5 µM in the experiment with HOP-62 NSCLC; 33.3 µM with MCF7 breast; 38 µM with HCC-2998 colon. For the same molecule, the TGI with MOLT-4 leukemia was 98.6 µM; in the experiment on NCI/ADR-RES ovarian it was 39.8 µM; in the experiment on NCI-H226 lung, 41.4 µM; in the experiment with KM12 colon it was 35.3 µM.
For `CCN(Cc1ccccc1)c1ccc(CO)c(Cl)c1`, the GI50 was 1.27 µM with SW-620 colon; 30.2 µM with SF-539 CNS; 17.4 µM in the experiment with NCI-H522 lung; 0.963 µM in the experiment with HOP-62 NSCLC; 0.338 µM in the experiment on MCF7 breast; 8.33 µM in the experiment with HCC-2998 colon. Besides, the GI50 was 29.9 µM with MOLT-4 leukemia, 14.4 µM in the experiment with NCI/ADR-RES ovarian, 0.0913 µM in the experiment with NCI-H226 lung and 20.5 µM in the experiment on KM12 colon. Further, the TGI in the experiment on SW-620 colon was above 100 µM; in the experiment on SF-539 CNS it was above 100 µM; with NCI-H522 lung, 63.4 µM; with HOP-62 NSCLC it was 79.5 µM; in the experiment on MCF7 breast it was 25.9 µM; with HCC-2998 colon it was 34.5 µM. Moreover, the TGI with MOLT-4 leukemia was above 87.2 µM; in the experiment on NCI/ADR-RES ovarian, 56.8 µM; in the experiment with NCI-H226 lung it was 0.233 µM; in the experiment with KM12 colon, 63.3 µM.
Consider `O=S(=O)(NCCCNc1nccc(-c2c(-c3ccc(F)c(O)c3)nc3sccn23)n1)c1ccc(F)cc1`, for which the GI50 with SW-620 colon is 3.9 µM; with SF-539 CNS, 3.5 µM; in the experiment on NCI-H522 lung, 1.93 µM; in the experiment on HOP-62 NSCLC, 2.78 µM; in the experiment with MCF7 breast it was 2.39 µM; with HCC-2998 colon it was 2.86 µM. For the same molecule, the GI50 with MOLT-4 leukemia was 1.73 µM; in the experiment on NCI/ADR-RES ovarian it was 3.44 µM; with NCI-H226 lung, 2.38 µM; in the experiment on KM12 colon, 2.67 µM. Besides, the TGI in the experiment with SW-620 colon was above 100 µM; in the experiment on SF-539 CNS it was 17.4 µM; in the experiment on NCI-H522 lung, 6.04 µM; in the experiment with HOP-62 NSCLC, 8.7 µM; in the experiment on MCF7 breast, 7.76 µM; in the experiment with HCC-2998 colon, 7.17 µM. For the same molecule, the TGI worked out at 5.57 µM in the experiment on MOLT-4 leukemia, 28 µM in the experiment on NCI/ADR-RES ovarian, 6.98 µM in the experiment on NCI-H226 lung and 8.36 µM in the experiment on KM12 colon.
Turning to `C/C(=N\Nc1cc(C)c2ccccc2n1)c1ccccn1`, the TGI in the experiment with SW-620 colon was determined as 1.98 µM; in the experiment with SF-539 CNS, 0.693 µM; with NCI-H522 lung, 0.319 µM; in the experiment with HOP-62 NSCLC, 1.37 µM; in the experiment with MCF7 breast, 1.16 µM; with HCC-2998 colon, 2.15 µM. In addition, the TGI in the experiment with MOLT-4 leukemia worked out at 0.489 µM; in the experiment with NCI/ADR-RES ovarian, 1.42 µM; in the experiment with NCI-H226 lung it was 2.71 µM; in the experiment with KM12 colon, 1.76 µM. Also, the GI50 with SF-539 CNS is 0.0778 µM; in the experiment on NCI-H522 lung, 0.0534 µM; with HOP-62 NSCLC it was 0.07 µM; with MCF7 breast, 0.0894 µM; with HCC-2998 colon, below 0.0445 µM; in the experiment on MOLT-4 leukemia, below 0.0381 µM. Further, the values for the GI50 with NCI/ADR-RES ovarian, in the experiment with NCI-H226 lung and in the experiment on KM12 colon were 0.0717 µM, 0.225 µM and 0.0789 µM, respectively.
Consider `C=C(NC(=O)C(=C)NC(=O)c1csc(C2=NC3c4csc(n4)C4NC(=O)c5csc(n5)C(C(C)(O)C(C)O)NC(=O)C5CSC(=N5)C(=CC)NC(=O)C(C(C)O)NC(=O)c5csc(n5)C3(CC2)NC(=O)C(C)NC(=O)C(=C)NC(=O)C(C)NC(=O)C(C(C)CC)NC2C=Cc3c(C(C)O)cc(nc3C2O)C(=O)OC4C)n1)C(N)=O` (stereo not drawn), for which the GI50 in the experiment on SW-620 colon was 2.73 µM; with SF-539 CNS, 4.62 µM; with NCI-H522 lung, 2.07 µM; in the experiment on HOP-62 NSCLC, 22.9 µM; in the experiment on MCF7 breast, 5.7 µM; with HCC-2998 colon it was 28.8 µM. The GI50 with MOLT-4 leukemia was 2.08 µM; in the experiment on NCI/ADR-RES ovarian, above 100 µM; with NCI-H226 lung it was 2.18 µM; in the experiment on KM12 colon, 5.52 µM. The TGI in the experiment on SW-620 colon was above 100 µM; in the experiment with SF-539 CNS, 42.9 µM; with NCI-H522 lung, 4.76 µM; with HOP-62 NSCLC, above 100 µM; with MCF7 breast, above 100 µM; in the experiment on HCC-2998 colon, above 100 µM. Also, the TGI is 5.55 µM with MOLT-4 leukemia, above 100 µM in the experiment on NCI/ADR-RES ovarian, 7.71 µM in the experiment with NCI-H226 lung and 27.5 µM in the experiment with KM12 colon.
Take `C#CC1(OC(C)=O)CCC2C3CC=C4C=C(OC(C)=O)CCC4(C)C3CCC21C` (stereo not drawn): the TGI is 49.3 µM in the experiment on SW-620 colon; 40.1 µM in the experiment on SF-539 CNS; 34.9 µM in the experiment on NCI-H522 lung; above 100 µM in the experiment on HOP-62 NSCLC; 49.9 µM in the experiment with MCF7 breast; 32.9 µM in the experiment on HCC-2998 colon. Moreover, the TGI was 33.3 µM in the experiment on MOLT-4 leukemia, 79.3 µM in the experiment on NCI/ADR-RES ovarian, 63 µM with NCI-H226 lung and 40.2 µM in the experiment with KM12 colon.
